Patent publication US20110245759A1, “Methods of Treating An Infection with Nitric Oxide” (NITRIC BIOTHERAPEUTICS, INC., priority 2008, published 2011)

Legend:
[1] = tested on: moderate-severe interdigital and/or moccasin-type tinea pedis; assay: Single-site placebo-controlled clinical trial of gaseous nitric oxide in moderate-severe tinea pedis (Example 11); assay type: in vivo, human; details: 1% nitric oxide
Procedure: To evaluate the effectiveness of gaseous nitric oxide treatment against moderate-severe interdigital and/or moccasin-type tinea pedis, a single-site, placebo-controlled clinical trial treating≧50 evaluable human patients with moderate-severe interdigital tinea pedis was conducted. […] The foot of each patient was fitted with a flexible, plastic boot-like enclosure that was sealed at the mid-calf (see, for example, FIG. 19) and the foot was bathed with 1% gaseous nitric oxide in nitrogen, or 1% gaseous nitric oxide and 20% oxygen in nitrogen, or placebo (i.e., nitrogen) at a fixed flow of 1 liter per minute for 40 minutes each day for each of three consecutive days, Gas entered the boot-like enclosure near the toe region with passive diffusion from the enclosure into a well-ventilated examination room. Each foot of each patient was fitted with an air-tight, ankle-high covering […] On days 1, 3 and 12, each patient was assessed by a podiatrist blinded to the patient's treatment group and given a clinical symptom severity score ranging from 0 to 64.

[2] = tested on: coagulase-negative Staphylococci (CNS); assay: Full-thickness porcine wounds infected with bacteria, treated with nitric oxide with or without oxygen (Example 1); assay type: in vivo, pig
[3] = mixture of 1000 ppm nitric oxide and 21% oxygen; cited from earlier work
[4] = tested on: mild tinea pedis; assay: Single-site clinical trial of gaseous nitric oxide in mild tinea pedis (Example 10); assay type: in vivo, human; details: 1% gaseous nitric oxide in nitrogen, 10 patients, FIG. 14
Procedure: To evaluate the effectiveness of gaseous nitric oxide treatment against mild tinea pedis, a single-site clinical trial treating 10 human patients with mild tinea pedis was conducted. […] The foot of each patient was fitted with a flexible, plastic boot-like enclosure that was sealed at the mid-calf (see, for example, FIG. 19) and the foot was bathed with 1% gaseous nitric oxide in nitrogen at a fixed flow of 1 liter per minute for a total of 2 hours divided over 5 treatment days. Gas entered the boot-like enclosure near the toe region with passive diffusion from the enclosure into a well-ventilated examination room. On day 1, patients were treated for 10 minutes. On day 2, patients were treated for 20 minutes. On each of days 3, 4 and 5, patients were treated for 30 minutes. On days 0, 1, 2, 3, 4, 5 and 12, each patient was assessed by a podiatrist blinded to the patient's treatment group and given a clinical symptom severity score ranging from 0 to 64. The clinical symptom severity score is determined by scoring each of 8 categories (i.e., fissures/cracks, yellow crusting (ruptured blisters), maceration (white moist skin), pruritus (itching), scaling, erythema, vesicles/blisters and burning) on an 8-point scale (i.e., 0=absent, 1-2 mild, 3-5 moderate and 6-8 severe). […]

[5] = tested on: Human head lice, permethrin(kdr)-resistant SF-HL strain; assay: Gas chamber bioassay on human head louse females and eggs (Example 13); details: for lice killed: adult female lice, 1 liter/minute
Procedure: The ability of nitric oxide or nitric oxide+oxygen to kill human head louse females and eggs was evaluated using gas chamber bioassay.
Human head lice from the permethrin(kdr)-resistant SF-HL strain were used in a nitric oxide gas bioassay to determine louse mortality at different exposure intervals. Adult female lice and aged eggs (6-8 day old) were used in all bioassays. The lice or eggs were placed in the bottom of a sterile disposable Petri dishes (60×20 mm) and left uncovered. The dish with lice or eggs was placed inside a polyethylene bag and the bag was taped shut with HY-TAPE® (HY-TAPE Intl., Patterson, N.Y.) to seal the chamber and to minimize the volume of gas inside the chamber. The treatments used were either nitric oxide, in combination with oxygen mixed in equal parts at a final concentration of 10,000 ppm nitric oxide and 20% oxygen, or a treatment with nitric oxide alone at 10,000 ppm in nitrogen both with a flow rate of 1 liter/minute. The gas tank was connected to the chamber with PVC tubing and plastic connectors. The nitric oxide, in combination with oxygen, was mixed in the tubing before the chamber inlet. The chamber outlet was also connected with PVC tubing and fed to a NO scrubber to trap the NO gas leaving the chamber. Additionally, tufts of human hair (blond and brown) were placed inside the chamber for a 30 minute exposure interval to nitric oxide+oxygen to assess discoloration of the hair for cosmetic purposes.

[6] = 30 minute exposure interval, 10,000 ppm nitric oxide

With [N]=O [nitric oxide] as the molecule, how does the “clinical symptom severity score on day 3 compared with day 1” value ([1]; 40 minutes each day for three days, all patients treated) read?
The value was “lower on day 3 than on day 1”.

And the “clinical symptom severity score on day 12 compared with day 3” value ([1]; 40 minutes each day for three days, most patients treated)?
The value was “lower clinical symptom severity score on day 12 than on day 3”.

And the “patients with interdigital tinea who reached the primary clinical endpoint score of ≦8” value ([1]; of the 13 patients with interdigital tinea)?
Its value is 8 patients.

And the “amount of total bacteria in biopsies taken from the center of the wounds” value ([2]; 10,000 ppm nitric oxide, p<0.05, FIG. 10)?
The value was “significant decrease”.

What about the “average decrease of total bacteria in center biopsies, compared with nitric oxide in combination with oxygen” value ([2]; pig, in vivo) of the same molecule?
Its value is “smaller decrease”.

And the “time for half of the nitric oxide to react to become nitric dioxide” value [3]?
The value was “about 3.5 minutes”.

What about the “average clinical symptom severity score (0 to 64) during treatment” value ([4]; 1 liter per minute, 2 hours over 5 treatment days) of the same molecule?
Its value is “began to decrease on the second day of treatment and continued to decrease until the fifth day of treatment”.

And the “average clinical symptom severity score on day 12, seven days after the last treatment” value [4]?
The value was “remained as low as it was on day 5”.

And the “ovicidal activity on aged eggs (6-8 days old)” value [5, 6]?
Its value is “not ovicidal”.

What about the lice killed ([5]; 10 minute exposure interval, 10,000 ppm nitric oxide) of the same molecule?
The lice killed was “did not kill any”.

And the lice killed [5, 6]?
Its lice killed is “did not kill any”.

What about the egg hatchability ([5]; aged eggs (6-8 days old), 30 minute exposure interval, compared with untreated control eggs) of the same molecule?
Its egg hatchability is “not different from untreated control eggs”.
